From US20240284907A1, “NOVEL DERIVATIVES OF NON-CODED AMINO ACIDS AND THEIR USE AS HERBICIDES” (FortePhest LTD., priority 2021, published 2024)

system: Seeds of Lettuce R. (Super-Jericho); test: Filter paper bioassay with lettuce seeds: germination and early plant development, Minimal Effective Concentration (MEC); format: in vivo; conditions: lettuce seeds on filter paper, 0 to 1 mmol/l, visually assessed after 6 days
Excerpt: Materials: Seeds of Lettuce R. (Super-Jericho, non-sterilized) were obtained from Ben Shahar Moshe Ltd., 99% purity. The test compounds listed in the Table 2 below were synthetized de novo or purchased from different vendors.
Filter Paper Bioassays with Lettuce seeds: The protocol is following Bertin et al. 2009 and Movellan et al. 2014 with specified modifications as described below.
Seeds were placed on Whatman no. 1 filter paper (Whatman, Middlesex, U.K.) in Petri dishes (10 seeds per plate) with 2.0 ml of aqueous solution of a test material in concentration ranged from 0 (control) to 1 mmol/l were placed in a tray tilted at 45[…]. The trays were kept in dark for 48 hours and then transferred to the growth chamber with 6/18 dark/light cycle for 4 days. Each experiment was performed at least with two repeats.
The development of plants' radicle and shoots were visually assessed 6 days after the beginning of the test to determine Minimal Effective Concentration (MEC) of a test material. In the context of the invention, MEC is defined as the lowest concentration level of a test material that caused deviation (absence of germination or malformation of radicle or shoots) from the plant's development in the Control group.

Row | Compound | Score (activity score of Minimal Effective Concentration, MEC)
1 | 2-bromopyridine-4-carboxamide [compound 6600] | Weak (Higher than 0.1 mM)
2 | 2-bromopyridine-4-carboxylic acid [compound 692] | Weak (Higher than 0.1 mM)
3 | 2-carbamimidamido-N-[2-(2,5-dichlorothiophen-3-yl)ethyl]acetamide [compound 5726] | Moderate (0.1 mM)
4 | 2-{2-[3-fluoro-5-(trifluoromethyl)pyridin-2-yl]-1,3-thiazol-4-yl}acetic acid [compound 5770] | Weak (Higher than 0.1 mM)
5 | 2-{[(2,5-dichlorothiophen-3-yl)methyl]amino}acetic acid [compound 5615] | Weak (Higher than 0.1 mM)
6 | 3-(1H-1,2,4-triazol-1-yl)propanoic acid [compound 5628] | Weak (Higher than 0.1 mM)
7 | 3-(thiophen-3-yl)propan-1-amine [compound 593] | weak
8 | 3-(thiophen-3-yl)propane-1,2-diol [compound 5604] | Moderate (0.1 mM)
9 | 3-{[(2,5-dichlorothiophen-3-yl)methyl]amino}-2,2-difluoropropanoic acid [compound 5624] | Weak (Higher than 0.1 mM)
10 | 4-(2,5-dichlorothiophen-3-yl)butanoic acid [compound 597] | Moderate (0.1 mM)
11 | 6-bromopyridine-2-carbonitrile [compound 6670] | Weak (Higher than 0.1 mM)
12 | O=C(O)C(O)Cc1cc(Cl)sc1Cl (stereo not shown) [compound 585, 3-(2,5-dichlorothiophen-3-yl)-2-hydroxypropanoic acid] | moderate
13 | NCc1cc(Cl)sc1Cl [compound 587, 1-(2,5-dichlorothiophen-3-yl)methanamine] | weak
14 | NCCc1ccsc1 [compound 588, 2-(thiophen-3-yl)ethan-1-amine] | weak
15 | OCCc1ccsc1 [compound 589, 2-(thiophen-3-yl)ethan-1-ol] | strong
16 | NCC(O)c1ccsc1 (stereo not shown) [compound 590, 2-amino-1-(thiophen-3-yl)ethan-1-ol] | weak
17 | NC(=O)Cc1ccsc1 [compound 591, 2-(thiophen-3-yl)acetamide] | moderate
18 | O=C(O)c1nc(Cl)sc1Cl [compound 596, 2,5-dichloro-1,3-thiazole-4-carboxylic acid] | Weak (Higher than 0.1 mM)
19 | CCOC(=O)C(NC(C)=O)C(F)(F)c1nnc(CCl)s1 (stereo not shown) [compound 598, ethyl3-[5-(chloromethyl)-1,3,4-thiadiazol-2-yl]-2-acetamido-3,3-difluoropropanoate] | Weak (Higher than 0.1 mM)
20 | Cl.NC(Cc1n[nH]c2ccccc12)C(=O)O (stereo not shown) [compound 599, 2-amino-3-(1H-indazol-3-yl)propanoic acid hydrochloride[HCl]] | Moderate (0.1 mM)
21 | O=C(O)C(O)Cc1ccnc(Br)c1 (stereo not shown) [compound 680, 3-(2-bromopyridin-4-yl)-2-hydroxypropanoic acid] | Weak (Higher than 0.1 mM)
22 | Brc1cc(CNCc2ccnc(Br)c2)ccn1 [compound 686, bis[(2-bromopyridin-4-yl)methyl]amine] | Weak (Higher than 0.1 mM)
23 | BrCCc1ccnc(Br)c1 [compound 690, 2-bromo-4-(2-bromoethyl)pyridine] | Weak (Higher than 0.1 mM)
24 | O=C(O)/C=C/c1ccc(Cl)nc1Cl [compound 694, (2E)-3-(2,6-dichloropyridin-3-yl)prop-2-enoic acid] | Moderate (0.1 mM)
25 | NCCSCCc1ccsc1 [compound 5603, 2-{[2-(thiophen-3-yl)ethyl]sulfanyl}ethan-1-amine] | Weak (Higher than 0.1 mM)

Row | Compound | Score (activity score of Minimal Effective Concentration, MEC)
26 | O=C(NCC(F)(F)C(=O)O)c1cc(Cl)sc1Cl [compound 5605, 3-[(2,5-dichlorothiophen-3-yl)formamido]-2,2-difluoropropanoic acid] | Weak (Higher than 0.1 mM)
27 | O=C(O)CCc1cc(Cl)sc1Cl [compound 5606, 3-(2,5-dichlorothiophen-3-yl)propanoic acid] | Moderate (0.1 mM)
28 | O=C(O)/C=C/c1cncs1 [compound 5608, (2E)-3-(1,3-thiazol-5-yl)prop-2-enoic acid] | Weak (Higher than 0.1 mM)
29 | O=C(Cl)c1nc(Cl)sc1Cl [compound 5613, 2,5-dichloro-1,3-thiazole-4-carbonylchloride] | Weak (Higher than 0.1 mM)
30 | CC(=O)Nc1nc(Cl)sc1Cl [compound 5618, N-(2,5-dichloro-1,3-thiazol-4-yl)acetamide] | Moderate (0.1 mM)
31 | O=C(O)C(=O)/C=C/c1cc(Cl)sc1Cl [compound 5620, (3E)-4-(2,5-dichlorothiophen-3-yl)-2-oxobut-3-enoic acid] | Weak (Higher than 0.1 mM)
32 | O=C(O)CCN1CCN(Cc2cc(Cl)sc2Cl)CC1 [compound 5626, 3-{4-[(2,5-dichlorothiophen-3-yl)methyl]piperazin-1-yl}propanoic acid] | Weak (Higher than 0.1 mM)
33 | O=C(O)CCC(F)(F)c1cc(Cl)sc1Cl [compound 5632, 4-(2,5-dichlorothiophen-3-yl)-4,4-difluorobutanoic acid] | Moderate (0.1 mM)
34 | O=C(O)C(=O)c1c(Cl)sc(Cl)c1Cl [compound 5645, 2-oxo-2-(245-trichlorothiophen-3-yl)acetic acid] | Strong (0.01 mM)
35 | O=C(O)C(F)(F)c1ccc2[nH]c(=O)[nH]c2c1 [compound 5654, 2,2-difluoro-2-(2-oxo-23-dihydro-1H-1,3-benzodiazol-5-yl)acetic acid] | Weak (Higher than 0.1 mM)
36 | CCOC(=O)C(Br)c1nc(Br)sc1C (stereo not shown) [compound 5662, ethyl 2-bromo-2-(2-bromo-5-methyl-1,3-thiazol-4-yl)acetate] | Moderate (0.1 mM)
37 | Cl.Nc1nc2c(s1)CCCC2C(=O)O (stereo not shown) [compound 5673, 2-amino-4567-tetrahydro-1,3-benzothiazole-4-carboxylic acid hydrochloride] | <moderate
38 | C[N+](C)(C)CCc1nc(Cl)sc1Cl [compound 5680, 2-(2,5-dichloro-1,3-thiazol-4-yl)-NNN-trimethylethan-1-aminium] | Weak (Higher than 0.1 mM)
39 | O=C(O)c1cnc2sc(Cl)nc2c1 [compound 5683, 2-chloro[1,3]thiazolo[54-b]pyridine-6-carboxylic acid] | Moderate (0.1 mM)
40 | Clc1cc(CCNCc2ccccc2)c(Cl)s1 [compound 5694, benzyl[2-(2,5-dichlorothiophen-3-yl)ethyl]amine] | Moderate (0.1 mM)
41 | Nc1nc(C(F)(F)c2ccccc2)cs1 [compound 5697, 4-[difluoro(phenyl)methyl]-1,3-thiazol-2-amine] | Strong (0.01 mM)
42 | NNC(=O)Cc1csc(Cl)n1 [compound 5704, 2-(2-chloro-1,3-thiazol-4-yl)acetohydrazide] | Moderate (0.1 mM)
43 | O=C(Cc1ccccc1)NCCc1cc(Cl)sc1Cl [compound 5708, N-[2-(2,5-dichlorothiophen-3-yl)ethyl]-2-phenylacetamide] | Moderate (0.1 mM)
44 | CNNC(=O)Cc1csc(Cl)n1 [compound 5715, 2-(2-chloro-1,3-thiazol-4-yl)-N′-methyl acetohydrazide] | Moderate (0.1 mM)
45 | O=C(O)Cc1csc(-c2ncc(Cl)cc2F)n1 [compound 5716, 2-[2-(5-chloro-3-fluoropyridin-2-yl)-1,3-thiazol-4-yl]acetic acid] | Moderate (0.1 mM)
46 | O=C(O)C(F)(F)c1csc([N+](=O)[O-])n1 [compound 5719, 2,2-difluoro-2-(2-nitro-1,3-thiazol-4-yl)acetic acid] | Moderate (0.1 mM)
47 | O=C(O)C(F)(F)c1sc(Cl)nc1Cl [compound 5722, (24-dichloro-1,3-thiazol-5-yl)(difluoro)acetic acid] | Weak (Higher than 0.1 mM)
48 | CS(=O)(=O)NCCNCCc1cc(Cl)sc1Cl [compound 5723, N-(2-{[2-(2,5-dichlorothiophen-3-yl)ethyl]amino}ethyl)methane sulfonamide] | Strong (0.01 mM)
49 | CC(=O)C1CN(CCc2cc(Cl)sc2Cl)CCC1=O (stereo not shown) [compound 5743, 3-acetyl-1-[2-(2,5-dichlorothiophen-3-yl)ethyl]piperidin-4-one] | Moderate (0.1 mM)
